Where two headings read alike, the source gives them in different places.
Experiments:
[1] = test system: LA-P0297 lung cancer cells; assay type: in vivo, mice; conditions: for No tumor / Tumor developed (number of mice): total 6; for No tumor / Tumor developed (number of mice) / Necrosis: RvE1 pre-treatment; for Necrosis: cell wraps: Started on 18th day
Description: ERV1-transgenic mice (Tg) were engineered as previously described (Gao et al., 2013). In brief, the full-length of hCD11b promoter cDNA was cloned upstream of the full-length chemR23 cDNA (GenBank accession: www.ncbi.nlm.nih.gov/nuccore/NM_004072). For genotyping, genomic DNA was collected from ear punch biopsies of mice and screened by PCR with primers directed to mouse ERV1 (forward primer 5′-CTCGGTCTCCTAGGCAAC-3′) and human ERV1 (forward primer 5′-GTCTTCCTCCCAATCCAT-3′). The mouse and human ERV1 amplicons share the same reverse primer (5′-TAGAAAGCCAGGACCCAG-3′). FVB Wild type female mice (Wt) were purchased from Jackson Laboratories (Bar Harbor, ME). All animals were housed under specific pathogen-free conditions, received standard laboratory chow diet and water ad libitum. All animal experiments were approved by the Institutional Animal Care and Use Committee (IACUC) at the Forsyth Institute and were performed in conformance to the standards of the Public Health Service Policy on Humane Care and Use of Laboratory Animals. The animals were acclimatized before being used in the experimental study.
After one week of acclimatization, all animals received an injection of 1×10^6 LA-P0297 lung cancer cells subcutaneous in the right flank. Both Wt (n=18) and Tg (n=18) animals were randomly divided into 3 experimental groups: un-treated controls; 100 ng of RvE1 diluted in PBS injected intraperitoneal daily for the first 6 days and weekly thereafter for 3 weeks; vehicle, which was 5% ethanol diluted in PBS. RvE1 was stored in 100% ethanol and diluted in PBS immediately before use. RvE1 and vehicle were administered 30 minutes before the injection of cancer cells. Animals were checked routinely for body weight and growth of tumors on the skin. Tumor volume was measured using a Vernier caliper (Mitutoyo, Japan) and calculated using the following formula: V=½(L×W^2) where L=length and W=width. After 28 days, the animals were euthanized by CO2 asphyxia; tumor tissues were collected and stored for histological and molecular analyses.

[2] = test system: LA-P0297 lung cancer cells; experiment: Histological analysis of tumor tissue (hematoxylin and eosin); assay type: in vivo, mice
Description: To examine the microscopic alterations in the tumor tissue, tissues were fixed in 10% formalin, paraffin embedded, sectioned (5 μm) and stained with hematoxylin and eosin. Images were photographed and enlarged for evaluation.

Ki67 = experiment: Immunohistochemistry of tumor tissue, proliferation marker; assay type: in vivo, mice
Method: (§1) In order to identify tumor cell proliferation and angiogenesis markers, the expression of Ki67 as a marker of proliferation and CD31, CD34 and VEGF as markers of vascularization was analyzed by immunohistochemistry. Briefly, 5 μm thick sections were de-paraffinized and rehydrated with serial alcohol solutions. Antigen retrieval was performed by incubating the sections in 10 mM sodium citrate (pH 6.0) in a microwave oven first for 5 min at 720 W, then 3 min at 450 W and finally 2 min at 180 W. Endogenous peroxidase activity was quenched by incubating the slides with 3% H2O2 (in methanol) for 20 minutes at 4° C. followed by blocking with 2% BSA for 30 minutes at room temperature. The sections were then incubated with antibodies to Ki67, CD31, CD34 and VEGF (1:100 dilution) overnight at 4° C. in a humidified chamber. Sections were incubated with ABC reagent VACTASTAIN Elite ABC Standard Kit (PK-6100). The immune reactions were visualized using 3,3-diaminobenzidine tetra hydrochloride (DAB). DAB-stained slides were counterstained lightly with hematoxylin. Slides were dehydrated and mounted with Permount for analysis. Images were acquired and analyzed using the Nikon Eclipse 80i microscope (Japan) and Northern Eclipse imaging Elements-D (NIS-D) software. The results are expressed as percent of total positive cells.

CD31 = experiment: Immunohistochemistry of tumor tissue, vascularization marker CD31; assay type: in vivo; conditions: both Wt and Tg mice vs respective controls and vehicle groups
Method: as §1

CD34 = experiment: Immunohistochemistry of tumor tissue, vascularization marker CD34; assay type: in vivo, mice
Method: as §1

IL-1α = experiment: Multiplex bead array cytokine level in tumor tissue; assay type: in vivo; conditions: Wt mice, RvE1 pre-treatment, mean ± SEM
IL-12 = experiment: as above; assay type: in vivo; conditions: Wt mice, RvE1 pre-treatment, mean ± SEM
Method: (§2) Inflammation is driven by soluble factors that are produced by tumor cells and by the cells recruited to the tumor microenvironment. […] Cytokine levels were measured using a multiplex bead array assay kit for Luminex purchased from Millipore to measure the following cytokines: G-CSF, IL-10, IL-6, IL-8, IL-12, TNF □, as per the manufacturer's instructions using a Luminex 100 instrument. Appropriate dilutions of the samples in assay diluent were made as required. Each sample was assayed in duplicate and cytokine standards supplied by the manufacturer were used to calculate the concentrations in the samples. Cytokine levels are expressed in pg/ml.

IL-6 = experiment: as above; assay type: in vivo; conditions: Wt mice, RvE1 pre-treatment, mean ± SEM
Method: as §2

G-CSF = experiment: as above; assay type: in vivo, mice; conditions: RvE1 pre-treatment, mean ± SEM
Method: as §2

IL-8 = experiment: as above; assay type: in vivo, mice; conditions: RvE1 pre-treatment, mean ± SEM
Method: as §2

TNF-α = experiment: as above; assay type: in vivo, mice; conditions: RvE1 pre-treatment, mean ± SEM
Method: as §2

Ang1 = experiment: Quantitative mRNA expression in tumor tissue (qPCR); assay type: in vivo, mice; conditions: p<0.001
Method: (§3) In order to analyze the impact of RvE1 on inflammation and angiogenesis, the expression of NF-κB, COX-2, VEGF, Ang-1 and Ang-2 was examined by quantitative real-time PCR. Total cellular RNA was extracted from tumor tissue (stored in RNAlater solution) using TriZol reagent. Quantification of RNA was determined using NanoDrop 1000 (Thermo Fisher Scientific, Wilmington, DE). RNA samples were stored at −80° C. until use. The first-strand cDNA was synthesized with High Capacity cDNA Archive kit (Applied Biosystems, Foster City, CA, USA) according to the manufacturer's instructions. For quantitative RT-PCR analysis, oligonucleotides for NF-κB, COX-2, VEGF, Ang-1, Ang-2 and GAPDH were chosen from predesigned assays. Thermal cycling included initial steps at 50° C. for 2 min and at 95° C. for 10 min, followed by 40 cycles at 95° C. for 15 s and at 60° C. for 1 min. The fluorescence of the double-stranded products was monitored in real time. The cDNA was amplified and quantified using Sequence Detection System (SDS) 7000 (Applied Biosystems). The 2^(ΔΔCt) (Ct value of target gene minus Ct value of housekeeping gene) method was used to calculate relative quantity fold-change. GAPDH was used as the housekeeping gene. The data is from 3 independent experiments performed in triplicate.

COX-2 [3] = experiment: as above; assay type: in vivo, mice; conditions: p<0.001
Method: as §3

NF-κB [4] = experiment: as above; assay type: in vivo, mice; conditions: p<0.001
Method: as §3

VEGF = VEGF expression in tumor tissue (immunohistochemistry and PCR); assay type: in vivo, mice; conditions: p<0.001
Method: as §1
In order to analyze the impact of RvE1 on inflammation and angiogenesis, the expression of NF-κB, COX-2, VEGF, Ang-1 and Ang-2 was examined by quantitative real-time PCR. […] Quantification of RNA was determined using NanoDrop 1000 (Thermo Fisher Scientific, Wilmington, DE). […] For quantitative RT-PCR analysis, oligonucleotides for NF-κB, COX-2, VEGF, Ang-1, Ang-2 and GAPDH were chosen from predesigned assays. […] The fluorescence of the double-stranded products was monitored in real time. The cDNA was amplified and quantified using Sequence Detection System (SDS) 7000 (Applied Biosystems). The 2^(ΔΔCt) (Ct value of target gene minus Ct value of housekeeping gene) method was used to calculate relative quantity fold-change. […]

Ang2 = experiment: Quantitative mRNA expression in tumor tissue (qPCR); assay type: in vivo; conditions: both Wt and Tg mice vs controls and vehicle groups, p<0.001
Method: as §3

lung cancer [5] = experiment: Orthotopic model of lung cancer, RvE1; assay type: in vivo
COX2 = COX2 expression, orthotopic model of lung cancer; assay type: in vivo
COX-2 [6] = experiment: COX-2 expression, RvE1 and cisplatin xenograft model; assay type: in vivo, mice
NF-κB [7] = experiment: NF-κB expression, RvE1 and cisplatin xenograft model; assay type: in vivo, mice
lung cancer [8] = conditions: mouse, in vivo
lung cancer [9] = experiment: RvE1 and cisplatin in xenograft model of lung cancer
lung cancer [10] = experiment: LXA4 and xenograft model of lung cancer; assay type: in vivo
COX-2 [11] = experiment: COX-2 expression, LXA4 xenograft model of lung cancer; assay type: in vivo; conditions: LXA4-treatment group
[12] = Tg mice vs control and vehicle animals
[13] = Wt mice vs control and vehicle animals
[14] = RvE1 added to cisplatin, WT and TG animals
[15] = cisplatin, WT and TG mice, p<0.001

CC[C@@H](O)/C=C/C=C\C[C@@H](O)/C=C/C=C/C=C\[C@@H](O)CCCC(=O)O [RvE1, Resolvin E1]
Necrosis seen on the surface of tumors, from day ([1]; RvE1 treated groups): 19 days
No tumor ([1]; Tg mice): 3
Tumor developed (number of mice) ([1]; Tg mice): 3
Necrosis ([1]; Tg mice): Started
No tumor ([1]; Wt mice): Weak
Tumor developed (number of mice) ([1]; Wt mice): 4
Necrosis ([1]; Wt mice): Started
Tumor size ([1]; both Wt and Tg animals vs vehicle and control groups, p<0.001): reduced significantly
Body weight ([1]; mouse, in vivo): no significant difference
Signs of toxicity (behavioral changes; eating, drinking habits and movement) ([1]; mouse, in vivo): None of the animals exhibited any signs of toxicity
Tumor appearance ([1]; vs tumors of animals not treated with RvE1 (solid and rigid)): very soft and pulpous
Microscopic alterations of tumor tissue ([2]; RvE1-treated Wt and Tg animals): extensive necrosis
Necrosis, RvE1 treated Tg mice compared to Wt mice ([2]; Tg vs Wt): more prominent
Reduction in the expression of Ki67, RvE1 treated Tg mice compared to Wt mice treated with RvE1 (Ki67; Tg vs Wt): significantly (p<0.01) higher
Ki67-positive cells (Ki67; both Wt and Tg groups vs vehicle and control groups): significant (p<0.001) reduction
CD31 positive cells (CD31): significantly (p<0.001) reduced
CD34 positive cells (CD34; both Wt and Tg mice vs respective controls and vehicle groups): significantly (p<0.001) reduced
Reduction of CD34 expression in tumor tissues, Tg animals vs Wt animals (CD34; p<0.01): significantly more
IL-1α level in tumor tissue (IL-1α): 177.94 ± 15.7 pg/mL
IL-12 level in tumor tissue (IL-12): 46.73 ± 4.7 pg/mL
IL-6 level in tumor tissue (IL-6): 52.06 pg/mL
G-CSF level in tumor tissue (G-CSF; Tg mice): 1156.31 pg/mL
G-CSF level in tumor tissue (G-CSF; Wt mice): 1624.28 ± 170.8 pg/mL
IL-8 level in tumor tissue (IL-8; Tg mice): 692.61 pg/mL
IL-8 level in tumor tissue (IL-8; Wt mice): 2629.41 ± 263.3 pg/mL
TNF-α level in tumor tissue (TNF-α; Tg mice): 10.06 ± 2.1 ^¥¥ pg/ml
TNF-α level in tumor tissue (TNF-α; Wt mice): 13.23 pg/mL
Ang1 expression (Ang1; both Wt and Tg mice vs controls and vehicle groups): significantly decreased
Decrease in Ang1 expression, Tg mice compared to Wt animals (Ang1): more significant
COX-2 mRNA decrease (COX-2 [3]; Tg mice vs controls and vehicle groups): 8 fold
COX-2 mRNA decrease (COX-2 [3]; Wt mice vs controls and vehicle groups): 6 fold
NF-κB expression reduction (NF-κB [4]; [12]): 7.6 fold
NF-κB expression reduction (NF-κB [4]; [13]): 4 fold
VEGF expression reduction (VEGF; [12]): 7 fold
VEGF expression reduction (VEGF; [13]): 5 fold
Decrease of VEGF expression, Tg mice compared to Wt mice treated with RvE1 (VEGF): more significant
Ang2 expression (Ang2): significantly decreased
Histological findings in lungs (lung cancer [5]; RvE1 vs control groups): decreased tumor density, vascularization, and inflammatory infiltration with increased necrosis
Number of nodules in the lung over 2 weeks (lung cancer [5]; TG+RvE1 (TG control 8-10)): 3-5 nodules
Survival over 2 weeks (lung cancer [5]; TG+RvE1 (TG control 25%)): 80%
Number of nodules in the lung over 2 weeks (lung cancer [5]; WT+RvE1 (WT control 8-10)): 4-6 nodules
Survival over 2 weeks (lung cancer [5]; WT+RvE1 (WT control 25%)): 40%
Reduction of the expression of COX2 (COX2; both groups (WT and TG)): 6 fold
Reduction of expression (printed in the COX2 sentence) (COX2; only in the TG animals): 6-7 fold
Suppression (reduction) of COX-2 expression compared to cisplatin alone (COX-2 [6]; [14]): increased the suppression
Suppression (reduction) of NF-κB expression compared to cisplatin alone (NF-κB [7]; [14]): increased the suppression
Signs of toxicity (behavioral changes; eating, drinking habits and movement) (lung cancer [8]): None of the animals exhibited any signs of toxicity
Tumor volume compared to cisplatin alone (lung cancer [9]; RvE1 added to cisplatin, both WT and TG animals, p<0.001): significantly and further reduced
Tumor volume compared to the non-treated and WT groups (lung cancer [9]; TG animals treated with cisplatin and additional RvE1): markedly reduced tumor volume

CCCCC[C@H](O)/C=C/C=C\C=C\C=C\[C@@H](O)[C@@H](O)CCCC(=O)O [LXA4, lipoxin A4]
Necrosis, center of the tumor tissue (lung cancer [10]; LXA4-treated group vs WT-vehicle control, 4 weeks): highly necrotic
Inflammatory infiltration (lung cancer [10]; LXA4 group vs vehicle): no sign of inflammatory infiltration
Tumor volume (lung cancer [10]; LXA4 vs vehicle group over 4 weeks): reduced the tumor volume significantly
Body weight (lung cancer [10]; LXA4 vs vehicle, 4 weeks): No change
COX-2 expression (COX-2 [11]): significantly decreased

N.N.[Cl][Pt][Cl] [cisplatin]
COX-2 expression (COX-2 [6]; [15]): reduced
NF-κB expression (NF-κB [7]; [15]): reduced
Tumor volume (lung cancer [9]; cisplatin): reduced tumor volume
Decrease of tumor growth compared to control groups (lung cancer [9]; cisplatin, both WT and TG groups): more than 10 fold
Body weight (lung cancer [9]; cisplatin-alone group): lost weight after the first 2 weeks
